Laboratory results as given in EP0521692A2, “Inhibition of tumor cell metastasis potential and invasiveness by chemically-defined oligosaccharides, their derivatives, mimetics and antibodies directed to them” (The Biomembrane Institute, priority 1991, dated 1993).

Assays:
[1] = system: BL6 clone of B16 melanoma cell line; experiment: Lung colony formation after i.v. injection of BL6 cells preincubated with oligosaccharide; type: in vivo, C57/BL mice; conditions: for reductions of metastatic colonies in lung: BL6 cells preincubated with the sugar, then intravenous injection, 0.1 M, 37°C, 10 minutes in the majority of experiments; for total colony number reduced to % of control value: second independent series (Figure 1): preincubation with 0.1 M, 2 x 10^4 cells i.v., counted at 21 days
Procedure: The highly metastatic BL6 clone of B16 melanoma cell line was obtained originally from Dr. Jean Starkey (Montana State Univ., Bozeman, MT), and clones were reselected in syngeneic C57/BL mice according to their metastatic potential. C57/BL mice were maintained in plastic cages under filtered air atmosphere and provided with water and food pellets ad lib. Cells were cultured in RPMI 1640 supplemented with 2 mM glutamine and 10% fetal calf serum (FCS), and detached with phosphate buffered saline (PBS) containing 2 mM EDTA. Viability was tested by trypan blue exclusion test.
A suspension of BL6 cells (1-3 x 10⁶ cells/ml RPMI 1640 medium) was prepared and aliquots were incubated in the presence or absence of various oligosaccharides at various concentrations, at 37°C for 5-10 minutes. Following incubation, typically, 3 x 10⁴ or 2 x 10⁴ cells (with or without oligosaccharide pretreatment) per 200 µl were injected via tail vein into 8-week-old female mice. After 18-21 days, mice were killed, lungs were fixed in 10% formaldehyde in PBS (pH 7.4), and tumor cell colonies were counted under a dissecting microscope, thus providing background values of metastatic melanoma colony number in lung under these conditions. Data on number and size of colonies were statistically treated by the analysis of variance (ANOVA) procedure. Colonies with a diameter of 1 mm or greater were considered large-size and those with a diameter less than 1 mm were considered small-size.
(§1) For one experiment, BL6 cells were incubated with various concentrations of lactose, lacto-N-tetrose (Galβ1→3GlcNAcβl→3Galβ1→4GLc), methyl β-D-lactoside, or phenyl β-D-thiolactoside for various durations. In the majority of experiments, a concentration of 0.1 M was used and cells were incubated at 37°C for 10 minutes, separated from sugar-containing medium by mild centrifugation at 400 x g for 10 minutes, resuspended in RPMI 1640, and injected (3 x 10⁴ cells in 0.2 ml suspension) via tail vein. For some experiments, 2 x 10⁴ cells were injected and colonies were counted at 21 days. Viability and cell growth ability of BL6 cells after incubation in various sugar solutions were tested by trypan blue exclusion test, and by plating in RPMI 1640 culture under normal conditions in vitro, as well as by subcutaneous inoculation in age-matched C57/BL mice in order to test tumor growth.

BL6 cells = experiment: In vitro cell growth and thymidine incorporation after incubation with sugar; type: cell-based, mouse
Procedure: as §1

B16 melanoma cells = experiment: Lung colony formation, oligosaccharide injected i.p. before i.v. inoculation of tumor cells; type: in vivo, C57/BL mice; conditions: 1 ml of 0.25 M or 0.5 M i.p., 10 minutes before i.v. B16 melanoma cells; colonies counted 19 days later (Figure 2)
Procedure: Figure 2 graphically illustrates the effect of prior administration of methyl β-D-lactoside on the number and size of lung colony deposits of BL6 cells. Methyl β-D-lactoside (1 ml dosage) was injected intraperitoneally into C57/BL mice. After 10 minutes, B16 melanoma cells were injected intravenously. Lung colonies were counted and sized at 19 days. Group A represents control animals (not administered methyl β-D-lactoside) and groups B and C represent animals injected with 0.25 M and 0.5 M methyl β-D-lactoside, respectively. For each group, column 1 represents the total number of colonies, column 2 the number of colonies with diameter > 1 mm, and column 3 the number of colonies with diameter < 1 mm. Number of experiments is expressed as "n".
In a separate experiment, the effect of methyl β-D-lactoside on melanoma cell metastasis was determined after administration of the oligosaccharide, followed by inoculation with tumor cells. Specifically, a one ml dosage of methyl β-D-lactoside (at a concentration of 0.25 M or 0.5 M) was injected intraperitoneally in mice. After 10 minutes, B16 melanoma cells were injected intravenously. Lung colonies were counted 19 days later.

[2] = system: melanoma cell (BL6) adhesion on endothelial cells (HuVEC); experiment: Melanoma cell adhesion on endothelial cells; type: cell-based, mouse; conditions: Figure 5
Description: (§2) Figure 5 graphically illustrates the melanoma cell (BL6) adhesion on LacCer (Panel A) and on endothelial cells (HuVEC) (Panel B) are inhibited by LacCer and GM3.
GM3 interacts with LacCer, which is highly expressed on endothelial cells. The order of adhesion of the B16 variants onto LacCer-coated solid phase or onto endothelial cells was also in the same order as their metastatic potential. In contrast, integrin-dependent adhesion of the B16 variants was approximately equal for BL6, F10, and F1 (see Figure 4).

GMP-140 = target: T1, GMP-140 (Homo sapiens, UniProt P16109); experiment: Binding of platelets to fluorescent polystyrene beads coated with GSL (flow cytometry); conditions: for Binding index, Ratio (Activated/ Non-activated): ratio of binding index of activated to non-activated platelets; for Binding index, Activated platelets: thrombin-activated platelets, GSL-coated sulfate-containing polystyrene beads, MFI relative to non-GSL-coated beads, means of four experiments
T1 sequence (P16109 42-830): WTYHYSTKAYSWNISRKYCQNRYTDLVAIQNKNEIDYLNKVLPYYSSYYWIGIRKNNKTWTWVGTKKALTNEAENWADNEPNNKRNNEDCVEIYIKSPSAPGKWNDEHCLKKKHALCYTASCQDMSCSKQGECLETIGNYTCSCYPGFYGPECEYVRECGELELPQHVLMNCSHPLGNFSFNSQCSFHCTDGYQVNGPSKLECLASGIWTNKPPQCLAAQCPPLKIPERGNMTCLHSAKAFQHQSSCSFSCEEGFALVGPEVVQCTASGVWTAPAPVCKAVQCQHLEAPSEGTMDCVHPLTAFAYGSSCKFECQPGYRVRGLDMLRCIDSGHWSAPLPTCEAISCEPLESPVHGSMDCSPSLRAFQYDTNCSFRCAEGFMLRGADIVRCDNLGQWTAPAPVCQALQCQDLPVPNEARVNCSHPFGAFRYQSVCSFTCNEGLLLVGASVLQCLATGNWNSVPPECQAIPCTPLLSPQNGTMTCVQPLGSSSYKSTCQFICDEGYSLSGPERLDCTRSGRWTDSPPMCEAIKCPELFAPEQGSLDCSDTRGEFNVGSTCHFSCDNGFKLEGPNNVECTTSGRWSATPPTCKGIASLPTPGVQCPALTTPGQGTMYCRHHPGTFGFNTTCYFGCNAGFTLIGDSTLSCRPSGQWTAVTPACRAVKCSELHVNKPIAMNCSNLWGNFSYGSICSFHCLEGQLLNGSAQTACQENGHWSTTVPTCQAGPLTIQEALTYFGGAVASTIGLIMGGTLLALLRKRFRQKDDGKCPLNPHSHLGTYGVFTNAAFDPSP
Procedure: Fluorescent plastic (e.g. polystyrene) beads (diameter ≈ 0.5 µm) are coated with GSL. GSLs are known to be strongly adsorbed on such beads, which allows construction of fluorescent probes containing specific GSLs. Platelets (activated or non-activated) are incubated with such GSL-coated beads, followed by determination of platelet fluorescence intensity by flow cytometry.
Platelets were isolated from"platelet-rich plasma"obtained from the Oregon Red Cross (Portland, OR), and contaminating red blood cells were removed by centrifugation at 80xg for 10 min. Platelets were centrifuged at 300xg for 10 min, and suspended in Tyrode's buffer (pH 6.5) containing 22 mM citrate buffer with 0.35% bovine serum albumin (BSA). Platelet suspension (1x10⁸/ml) was incubated (pH 7.2, 37°C, 5 min) after addition of thrombin (final concentration 1 U/ml). The mixture was then incubated at 37°C for 10 min without stirring. Thrombin-activated platelets were fixed with an equal volume of 2% formaldehyde in phosphate-buffered saline (PBS), pH 7.2, and washed 2x with PBS containing 1% BSA.
Activated and non-activated platelets were fixed with paraformaldehyde in Ca²⁺-free PBS, pH 7.2, washed 2x with Ca^2a+-containing PBS with 1% BSA, resuspended in CA^2a+-PBS with 1% BSA and 0.1% azide, and the number of platelets adjusted to ≈1x10⁹/ml. The cell suspension was stored at 4°C and the binding assay performed within 24 hr.
Fluorescent polystyrene latex beads were obtained from Molecular Probe, Inc., Eugene, OR. They were yellow-green fluorescent beads with a sulfate group at the surface, diameter ≈0.5 µm (actually 0.486 µm). 1x10⁹ beads in 30 µl ETOH were added to 10 µg of GSL solution in 200 µl C=M, mixed well, and dried under an N₂ stream. The residue was resuspended in 200 µl ethanol, sonicated briefly, and dried under an N₂ stream. […]
20 µl of platelet (non-activated or activated) suspension ... paraformaldehyde-fixed -- containing ≈2x10⁷ platelets was mixed with 10 µl of fluorescent GSL-coated beads -- containing ≈2x10⁷ beads, mixed well, […] allowed to stand at 37°C for 30 min. The platelet suspension was mixed with 200 µl Ca²⁺-PBS and analyzed by flow cytometry (EPICS Profile, Coulter Cytometry, Hialeath, FL).
Flow cytometric analyses of platelets alone and beads alone were performed for a gating set to include most signals produced by platelets by excluding signals produced by free beads. The binding index (BI) was calculated as mean fluorescence intensity (MFI) of platelets incubated with fluorescent GSL-coated beads, divided by MFI of platelets incubated with fluorescent non-GSL-coated (control) beads. […]

[3] = system: melanoma cell (BL6) adhesion on LacCer; experiment: Melanoma cell adhesion on LacCer-coated solid phase; type: cell-based, mouse; conditions: Figure 5, Panel A
Description: Figure 4 graphically illustrates that melanoma cell adhesion on LacCer is based on GM3-LacCer interaction. The order of metastatic potential is BL6>F10>F1>>WA4.
as §2

OC[C@H]1O[C@@H](O[C@H]2[C@H](O)[C@@H](O)C(O)O[C@@H]2CO)[C@H](O)[C@@H](O)[C@H]1O (stereo partly drawn) [Lactose] was tested, and the “reductions of metastatic colonies in lung” value [1] was 26%.
With CC(=O)N[C@H]1[C@H](O[C@H]2[C@@H](O)[C@@H](CO)O[C@@H](O[C@H]3[C@H](O)[C@@H](O)C(O)O[C@@H]3CO)[C@@H]2O)O[C@H](CO)[C@@H](O)[C@@H]1O[C@@H]1O[C@H](CO)[C@H](O)[C@H](O)[C@H]1O (stereo partly drawn) [lacto-N-tetrose, Galβ1→3GlcNAcβl→3Galβl→4Glc] the “reductions of metastatic colonies in lung” value [1] was 36%.
With CO[C@@H]1O[C@H](CO)[C@@H](O[C@@H]2O[C@H](CO)[C@H](O)[C@H](O)[C@H]2O)[C@H](O)[C@H]1O [methyl β-D-lactoside] the “reduction of metastatic lung colony number compared to control” value (“reduction … to control” for short) ([1]; BL6 cells treated with 0.005 M) was 8%, the “reduction … to control” value ([1]; BL6 cells treated with 0.01 M) was 16% and the “reduction … to control” value ([1]; BL6 cells treated with 0.1 M) was 43%. For the same molecule, the “total colony number reduced to % of control value” [1] was 35%, the “effect on cell number increase” value (BL6 cells) was “slight in vitro stimulatory effect” and the “effect on thymidine incorporation” value (BL6 cells) was “slight in vitro stimulatory effect”. For the same molecule, the “lung metastatic colony formation” value (B16 melanoma cells) was “significant reduction” and the “B16 melanoma adhesion on endothelial cells” value [2] was “inhibited”.
For OC[C@H]1O[C@@H](O[C@H]2[C@H](O)[C@@H](O)[C@H](Sc3ccccc3)O[C@@H]2CO)[C@H](O)[C@@H](O)[C@H]1O [phenyl β-D-thiolactoside], the “total colony number reduced to % of control value” [1] was 50%, the “effect on cell number increase” value (BL6 cells) was “slight in vitro stimulatory effect” and the “effect on thymidine incorporation” value (BL6 cells) was “slight in vitro stimulatory effect”.
“NeuAcα2→3Galβ1→4GlcNAcβ1→3Galβ1→R [SPG, reference compound]” was tested, and the “Binding index, Ratio (Activated/ Non-activated)” value (GMP-140) was 0.7 ± 0.2 and the “Binding index, Activated platelets” value (GMP-140) was 0.8 ± 0.2.
In the case of NeuAcα2→3Galβl→4Glcβl→Cer [GM3], the “melanoma cell (BL6) adhesion on LacCer” value [3] was “inhibited”, the “Binding index, Ratio (Activated/ Non-activated)” value (GMP-140) was 0.7 ± 0.5 and the “Binding index, Activated platelets” value (GMP-140) was 1.0 ± 0.1.
